Legend:
[1] = Aqueous solubility of crystalline L-malate salt forms compared to free base amorphous form; assay type: physicochemical; details: crystalline L-malate salt compared to the free base amorphous form
[2] = molecular target: T1, human recombinant ghrelin receptor (GHS-R1a) (Homo sapiens, UniProt Q92847); assay: hGHS-R1a Ca assay (Fluo-4 calcium assay in CHO-K1 cells); assay type: cell-based; details: CHO-K1 cells expressing human GHS-R1a; agonist dose response up to 30 μM
T1 construct: host or cells: CHO-K1
Protocol: (§1) Chinese hamster ovary (CHO-K1) cells expressing human recombinant ghrelin receptor (GHS-R1a) were purchased from Euroscreen (ES-410-C) and propagated in UltraCHO medium containing glutamine and supplemented with 1% heat inactivated foetal calf serum (FCS), 100 U/ml penicillin, 100 mg/l streptomycin and 0.8 g/l geneticin. Cells were sub-cultured twice a week with a 1:10 dilution. For passaging, cells were washed with 1×DPBS without calcium and magnesium, trypsinised for 10 min with 0.05% Trypsin/EDTA and resuspended in cell culture medium.
Cells were diluted to achieve 1×10^6 cells/ml, seeded in 384-well black clear bottom CellBind plates at 25000 cells/well (25 ul) and incubated overnight at 37° C./5% CO2 Cells were expected to be 85-90% confluent on the day of assay (checked under the microscope) to ensure a high quality assay. Media was manually removed and 40 μl of loading solution containing probenecid and Fluo-4 no wash dye (a calcium indicator, Invitrogen F36206) were added to each well. After 30 min at 37° C. followed by another 30 min at RT, cpds were added to the wells. To generate a dose response up to 30 μM, 10 mM compound stocks in 100% (v/v) DMSO were firstly diluted in 50% (v/v) DMSO. Then, serial dilutions aimed at a full logarithmic dose responses (8 point) were performed in assay buffer [1×HBSS, 20 mM Hepes, 0.1% (w/v) BSA] to give 2.5% (v/v) DMSO and 5× final compound concentrations. The final assay DMSO concentration was 0.5% (v/v). After loading the cells with Fluo-4 containing solution, plates were read on a CellLux instrument (Perkin Elmer). A protocol set up to add 10 μl of 5× compound and to read the plate for 60 sec after adding the compound at 17th sec was used. Fluorescence excitation took place at 494 nm and emission at 516 nm. EC50 values of agonists were calculated by fitting the percent stimulation over background [(Max−Min)/Min] using the nonlinear logistic function of the Prism 5 software (GraphPad, USA).

[3] = molecular target: T1, human recombinant ghrelin receptor (GHS-R1a); assay: hGHS-R1a cAMP assay (HTRF cAMP dynamic 2 kit, CHO-hGHS-R1a cells); assay type: cell-based; details: 60 min incubation, dose response up to 30 μM
Protocol: as §1
The Homogeneous Time-Resolved Fluorescence (HTRF) cAMP dynamic 2 kit (Cisbio International, France) was used as follows. CHO-hGHS-R1a or CHO-rGHS-R1a cells were seeded in a volume of 25 μl culture media at 10,000 cells/well (400,000 cells/ml) in Greiner white 384-well high volume plates and incubated overnight (18-24 h) at 37° C./5% CO2. Then, media was removed and 6 μl assay buffer [HBSS, 10 mM Hepes, 0.2% (w/v) BSA, 1.7 mM IBMX, (pH7.4)] were added to the wells. To generate a dose response up to 30 μM, 10 mM compound stocks in 100% (v/v) DMSO were firstly diluted in 50% (v/v) DMSO followed by a further dilution into assay buffer. Then, 4 μl of 2.5× compound (dose response as 9 point log serial dilution in assay buffer from 30 μM as maximum concentration) were added to each well achieving a final DMSO assay concentration of 0.8% (v/v). 0.1 μM forskolin was added as positive control. After 30 min (rGHS-R1a cell line) or 60 min (hGHS-R1a cell line) incubation at 37° C./5% CO2, 5 μl of cAMP-d2 and 5 μl of anti-cAMP antibody-cryptate, (both made in lysis buffer), were added to the plate followed by 1 h incubation at RT. During this time, cAMP produced by the cells competed with cAMP-d2 for the anti-cAMP antibody-cryptate molecule. Then, the plate was read on the Pherastar instrument (BMG, Germany) at two different emission wavelengths (620 and 650 nm). Increasing levels of endogenous cAMP produced by cells could be followed by a decrease of FRET fluorescent signal and viceversa. Values represented by a change in arbitrary fluorescence ratios (665/620) were converted into cAMP concentrations by using a standard curve, the reagents for which were supplied with the kit. EC50 values of agonists were calculated using the nonlinear logistic function of the Prism 5 software (GraphPad, USA). Emax were expressed as relative values of the ghrelin response, which was defined as 100%.

T1 sequence (Q92847 whole entry): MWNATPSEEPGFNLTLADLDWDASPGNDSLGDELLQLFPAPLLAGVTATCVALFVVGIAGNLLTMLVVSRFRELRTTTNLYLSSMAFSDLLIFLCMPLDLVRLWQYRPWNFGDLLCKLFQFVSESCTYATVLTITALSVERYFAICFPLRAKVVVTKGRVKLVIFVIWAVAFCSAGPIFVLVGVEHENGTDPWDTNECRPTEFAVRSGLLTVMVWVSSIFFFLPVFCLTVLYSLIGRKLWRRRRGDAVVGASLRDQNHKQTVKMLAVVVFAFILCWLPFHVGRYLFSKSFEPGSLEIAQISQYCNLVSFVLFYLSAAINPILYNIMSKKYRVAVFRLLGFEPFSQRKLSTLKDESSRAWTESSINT

CN1C[C@@H](c2ccc(F)cc2)[C@@]2(CCCN(C(=O)[C@@H](COCc3ccccc3)NC(=O)C(C)(C)N)C2)C1=O.O=C(O)C[C@H](O)C(=O)O [2-amino-N-((2R)-3-(benzyloxy)-1-((4S,5R)-4-(4-fluorophenyl)-2-methyl-1-oxo-2,7-diazaspiro[4.5]decan-7-yl)-1-oxopropan-2-yl)-2-methylpropanamide L-malate salt]
aqueous solubility [1]: increased aqueous solubility

CN1C[C@@H](c2ccccc2)[C@@]2(CCCN(C(=O)[C@@H](COCc3ccccc3)NC(=O)C(C)(C)N)C2)C1=O.O=C(O)C[C@H](O)C(=O)O [2-Amino-N-[(R)-1-benzyloxymethyl-2-((4S,5R)-2-methyl-1-oxo-4-phenyl-2,7-diaza-spiro[4.5]dec-7-yl)-2-oxo-ethyl]-2-methyl-propionamide L-malate salt]
aqueous solubility [1]: increased aqueous solubility

Cc1ccc(C2CN(C)C(=O)C23CCCN(C(=O)[C@@H](COCc2ccccc2)NC(=O)C(C)(C)N)C3)cc1.O=C(O)C[C@H](O)C(=O)O (stereo partly drawn) [2-amino-N-((2R)-3-(benzyloxy)-1-(2-methyl-1-oxo-4-p-tolyl-2,7-diazaspiro[4.5]decan-7-yl)-1-oxopropan-2-yl)-2-methylpropanamide L-malate salt]
aqueous solubility [1]: increased aqueous solubility

COc1ccc(COC[C@@H](NC(=O)C(C)(C)N)C(=O)N2CCCC3(C2)C(=O)N(C)CC3c2ccccc2)cc1 (single isomer, unassigned) [Example 6.0(ii), 2-Amino-N-[(R)-1-(4-methoxy-benzyloxymethyl)-2-((4S,5R)-2-methyl-1-oxo-4-phenyl-2,7-diaza-spiro[4.5]dec-7-yl)-2-oxo-ethyl]-2-methyl-propionamide or 2-Amino-N-[(R)-1-(4-methoxy-benzyloxymethyl)-2-(4R,5S)-2-methyl-1-oxo-4-phenyl-2,7-diaza-spiro[4.5]dec-7-yl)-2-oxo-ethyl]-2-methyl-propionamide]
EC50 [2]: 0.0005 µM | EC50 [3]: 0.109 µM

CN1C(=O)C2(CCCN(C(=O)[C@@H](COCc3ccccc3)NC(=O)C(C)(C)N)C2)C1c1ccccc1 (single isomer, unassigned) [Example 2.0(ii)]
EC50 [2]: 0.0011 µM | EC50 [3]: 0.456 µM

CC(C)(C)CN1CC(c2ccccc2)C2(CCCN(C(=O)[C@@H](COCc3ccccc3)NC(=O)C(C)(C)N)C2)C1=O (single isomer, unassigned) [Example 1.40]
EC50 [2]: 0.0007 µM | EC50 [3]: 0.034 µM

CC(C)(N)C(=O)N[C@H](COCc1ccccc1)C(=O)N1CCCC2(C1)C(=O)NCC2c1ccccc1 (single isomer, unassigned) [Example 1.4]
EC50 [2]: 0.0002 µM | EC50 [3]: 0.051 µM

CN1N=C(c2ccccc2)C2(CCCN(C(=O)[C@@H](COCc3ccccc3)NC(=O)C(C)(C)N)C2)C1=O (mixture of isomers) [Example 1.47, 2-Amino-N-[(R)-1-benzyloxymethyl-2-(3-methyl-4-oxo-1-phenyl-2,3,7-triaza-spiro[4.5]dec-1-en-7-yl)-2-oxo-ethyl]-2-methyl-propionamide]
EC50 [2]: 0.0017 µM | EC50 [3]: 0.385 µM

CN1CC(c2ccccc2)C2(CCCN(C(=O)[C@@H](COCc3ccccc3)NC(=O)C(C)(N)C(F)(F)F)C2)C1=O (stereo partly drawn) [Example 1.73, 2-amino-N-((2R)-3-(benzyloxy)-1-(2-methyl-1-oxo-4-phenyl-2,7-diazaspiro[4.5]decan-7-yl)-1-oxopropan-2-yl)-3,3,3-trifluoro-2-methylpropanamide]
EC50 [2]: 3.32 µM | EC50 [3]: ≥ 30 µM

CC(C)(C)CN1CC(c2ccccc2)C2(CCCN(C(=O)[C@@H](COCc3ccccc3)NC(=O)C(C)(C)N)C2)C1=O (stereo partly drawn) [Example 1.75, 2-amino-N-((2R)-3-(benzyloxy)-1-(2-neopentyl-1-oxo-4-phenyl-2,7-diazaspiro[4.5]decan-7-yl)-1-oxopropan-2-yl)-2-methylpropanamide]
EC50 [2]: 0.0036 µM | EC50 [3]: 0.302 µM

CN(C)C(=O)CN1CC(c2ccccc2)C2(CCCN(C(=O)[C@@H](COCc3ccccc3)NC(=O)C(C)(C)N)C2)C1=O (single isomer, unassigned) [Example 1.16]
EC50 [2]: 0.0005 µM | EC50 [3]: 0.039 µM

CCN1CC(c2ccccc2)C2(CCCN(C(=O)[C@@H](COCc3ccccc3)NC(=O)C(C)(C)N)C2)C1=O (single isomer, unassigned) [Example 1.25]
EC50 [2]: 0.0003 µM | EC50 [3]: 0.043 µM

CC(C)N1CC(c2ccccc2)C2(CCCN(C(=O)[C@@H](COCc3ccccc3)NC(=O)C(C)(C)N)C2)C1=O (single isomer, unassigned) [Example 1.5]
EC50 [2]: 0.0001 µM | EC50 [3]: 0.02 µM
